Experimental data reported in patent publication US10844102B2, “Peptides, compositions, and methods for stimulating subcutaneous adipogenesis” (The Regents of the University of California, priority 2014, dated 2020).
“Also recorded” adds a separate entry of the source.

What was measured:
[1] = tested on: rat mesenchymal stem cells; assay: Assay 2: adipogenesis, Oil Red O staining (differentiation of pre-adipocytes into adipocytes); format: cell-based; settings: for adipogenesis quantified by Oil Red O staining, fold change relative to the negative control: Assay 2, three weeks; for adipogenic activity in Assay 2: Assay 2, Oil Red O, concentration not given
Method: Reagents: The Dexamethasone, IBMX, Insulin, and Oil Red O Solutions were the same as described above for assay 1. Indomethacin Solution contained 10 mM indomethacin in methanol.
Adipogenesis Maintenance Media was prepared as described above.
Adipogenesis Induction Media: To prepare 501.5 mL of Adipogenesis Induction Media, 50 μL of the 10 mM stock Dexamethasone Solution, 500 μL of the 0.5 M IBMX stock solution, 500 μL of the 10 mg/ml stock Insulin Solution, 5 ml of a 10 mM stock Indomethacin Solution, and 5 mL of a 100× stock solution of penicillin and streptomycin were added to 490 mL of mesenchymal stem cell expansion media.
Pre-adipocyte stem cells, bone marrow mesenchymal stem cells or fibroblasts such as dermal reticular and papillary fibroblasts were propagated using standard tissue culture methods. Cells were trypsinized to remove cells from the substratum, the trypsin was neutralized, and cells were counted using a hemocytometer. Cells were resuspended at 20,000 cells/ml in DMEM containing 10% calf serum. 1 mL of cell suspension per well was plated in a 48-well plate, with several wells left empty for blank well (blank control) staining.
Cells were incubated for 2 days overnight and had reached confluency at this point. Media was removed from each well and replaced with 0.5 ml Adipogenesis Induction Media. For negative control (no insulin, no peptide) wells, expansion medium only was used at this step and for subsequent media changes. For all media changes, media was replaced as gently as possible to avoid disturbing the monolayer.
Cells were incubated for 72 hours at 37° C., 5% CO2. Media was removed and replaced with 0.5 ml of Adipogenesis Maintenance Media containing either RHAMM antagonist peptides (experimental group) or insulin (concentration as in the Adipogenesis Induction Media and used as a positive control). Cells were incubated for at least 96 hours in this media at 37° C., 5% CO2. Media was replaced every 48 hours and experiments were terminated between seven and fourteen days after addition of insulin or peptides.
Media was removed and Oil Red O staining was performed as described above for assay 1.
Assay 1 is an assay that promotes transdifferentiation of fibroblasts into adipocytes, whereas Assay 2 promotes differentiation of multi-potential mesenchymal progenitor cells into adipocytes. Immortalized rat bone marrow mesenchymal stem cells were used for both assays. These cells contain cells of different lineages, including fibroblasts, pre-adipocytes, pre-chondrocytes and pre-osteoblasts. Thus, Assay 1 was used to promote transdifferentiation of fibroblast lineages into adipocytes and Assay 2 was used to promote differentiation of the pre-adipocytes into adipocytes.
As described in Example 1 above, the priming stimulus for Assay 1 includes IBMX (3-isobutyl-1-methylxanthine) and dexamethasone, and then insulin as the final adipogenic stimulus. The priming stimulus for assay 2 includes IBMX, dexamethasone and indomethacin, and then insulin as the final adipogenic stimulus.
Adipogenesis was quantified by Oil Red O staining. The peptide was tested at concentrations of 5 and 50 μg/ml over a period of three weeks. Cells were plated in 48-well culture plates, and the purity of the peptides was >95%. All data are presented as the fold change relative to the negative control (Ctr(−))±standard error. The KSEVSK 6-mer (SEQ ID NO: 7) was used as a positive control.

[2] = tested on: rat mesenchymal stem cells; assay: Assay 1: adipogenesis, Oil Red O staining (transdifferentiation of fibroblast lineages into adipocytes); format: cell-based; settings: for adipogenesis quantified by Oil Red O staining, fold change relative to the negative control: Assay 1, three weeks
Method: Reagents: (1) 3-isobutyl-1-methylxanthine (IBMX) solution: 0.5M in DMSO; (2) Insulin Solution: 10 mg/mL recombinant human insulin; (3) Dexamethasone Solution in 10 mM in ethanol; (4) Oil Red O (0.36% in 60% isopropanol).
Adipogenesis Initiation Media: mesenchymal stem cell expansion media/0.5 mM IBMX/1 μM dexamethasone. Mesenchymal stem cell expansion media is commercially available from Millipore. The IBMX Solution was diluted 1:1000 and the Dexamethasone Solution was diluted 1:10,000 in expansion media containing antibiotics and antimycotics. The prepared media was stored at 4° C.
Adipogenesis Progression Media for positive control: mesenchymal stem cell expansion media/10 μg/mL insulin. The Insulin Solution was diluted 1:1000 in the expansion media and stored at 4° C.
Experimental Adipogenesis Progression Media: mesenchymal stem cell expansion media/1-100 μg/mL RHAMM antagonist peptides.
Adipogenesis Maintenance Media: mesenchymal stem cell expansion media containing antibiotics and antimycotics.
Negative Control Media: Dulbecco's Modified Eagle's Medium (DMEM)/10% normal calf serum.
Pre-adipocyte stem cells including bone marrow mesenchymal stem cells and fibroblasts were propagated using standard tissue culture methods. Cells were trypsinized to remove the cells from the substratum. The trypsin was neutralized and cells were counted using a hemocytometer. Cells were resuspended at 20,000 cells/mL in expansion media. 1 mL of cell suspension was plated per well of 48-well plate, with several wells left empty for blank well (blank control) staining.
Cells were incubated until they reached confluency. When cells were fully confluent, the expansion media was replaced with 0.5 mL of Adipogenesis Initiation Media. For negative controls (no insulin, no peptides), expansion media only was used at this step and for subsequent media changes. For all media changes, media was replaced as gently as possible to avoid disturbing the monolayer.
Cells were incubated in Adipogenesis Initiation Media for 72 hours at 37° C., 5% CO2. 0.5 mL media was then removed from each well, and replaced with 0.5 mL of either positive control or experimental Adipogenesis Progression Media per well. Cells were again incubated for 96 hours at 37° C., 5% CO2, after which time media was replaced every 48 hours with Adipogenesis Maintenance Media (0.5 mL of media was removed from each well and replaced with 0.5 mL Adipogenesis Maintenance Media per well). Media added to empty wells served as blank controls for blank well background staining. Cells were incubated in Adipogenesis Maintenance Medium for at least 96 hours at 37° C., 5% CO2 after which time media was replaced with Adipogenesis Maintenance Medium. Lipid droplets had appeared by the time Adipogenesis Maintenance Medium was initially added and continued to accumulate and increase in size for 7-14 days. Experiments were terminated between seven and fourteen days after the initial addition of Adipogenesis Maintenance Medium.
For quantification of Oil Red O staining, media was removed and cells were washed twice with PBS, using care to gently add the PBS. Cells were then fixed in 4% paraformaldehyde (0.5 mL/well) and incubated for 30 minutes. The fixation solution was then removed and wells were washed two times with 1 mL of phosphate buffered saline (PBS) and once with 1 mL Milli-Q water. 0.25 mL Oil Red O solution was added per well of 48-well plate, including to the wells lacking cells, but containing media. Cells were incubated for 15 minutes at room temperature. The staining solution was then removed and wells were washed two times with 1 mL of Milli-Q water and once with washing solution (63% isopropanol in water).
Adipogenesis was quantified using a spectrophotometer. 0.25 mL Dye Extraction Solution (isopropyl alcohol) was added per well, and the plate was set on an orbital shaker or platform rocker for 30 minutes. […]

[3] = tested on: adipogenesis; assay: Adipogenic activity of peptides and peptide fragments, assay not specified; format: cell-based; settings: assay not specified
Method: In the second approach, a series of truncations and alanine mutagenesis on peptide B were performed in order to identify the smallest active sequence. Fragments of peptide B were prepared and assayed for adipogenesis. First, fragments corresponding to the two halves of peptide B were prepared (KLKDENS (SEQ ID NO: 8) and SQLKSEVSK (SEQ ID NO: 13)).

[4] = earlier reports, background and U.S. Pat. No. 6,271,344; cited from earlier work
[5] = tested on: 3T3L cells; assay: Adiponectin ELISA on supernatant medium of primed 3T3L cells; format: cell-based, mouse; settings: 10 μg/ml peptide, versus no insulin control
Method: 3T3L cells were cultured in T75 culture flasks, in expansion medium (Millipore Corporation), and stored in a 5% CO2 humidified incubator at 37° C. Media was changed every two days until the cells reached 80% confluency. Cells were subcultured in a 96 well plate with a seeding density of 3×10^4 cells per cm^2.
Once cells had just reached confluency, expansion media was replaced with 0.5 mL of Adipogenic Induction Media per well containing 5% serum that had been screened for an ability to maintain stem cells in an undifferentiated state (LifeTechnologies). Cells were incubated for 48 hours at 37° C., 5% CO2. The Adipogenic Induction Media contained DMEM (low glucose, Gibco) +5% serum (LifeSciences) with 0.5 mM IBMX solution, 1 μM Dexamethasone Solution, and 100 μM Indomethacin Solution (priming stimulus). After 48 hr the Adipogenic Induction media was replaced with new media containing 10 μg/ml insulin alone (positive control), or 10 μg/ml peptide (experimental conditions). Negative controls were DMEM +5% serum only. Plates were incubated for two days prior to adiponectin ELISA analyses. Peptides were added daily at 10 μg/ml throughout the remainder of the experiment.
Adiponectin present in the supernatant medium was measured using a mouse adiponectin ELISA (Novex, LifeTechnologies). Briefly, supernatant medium was collected and diluted 1:100. One hundred microliters of the diluted supernatant medium was added to each well of the ELISA plate and incubated for one hour at 37° C. Wells were washed three times with 1× wash buffer and then 100 μl of antibody was added to each well and incubated for one hour at 37° C. The wells were then washed and incubated with 100 μl detector antibody for 1 hr at 37° C. The wells were washed five times with wash buffer and 100 μl of substrate solution was added to each well and incubated for twenty minutes in the dark. The reaction was then stopped by the addition of 100 μl stop solution. Plates were read at 450 nm and concentrations of adiponectin were derived from a standard curve included in the ELISA plate.
Insulin and the KSEVSK peptide (SEQ ID NO: 7) served as positive controls. […] In FIG. 7, values marked by asterisks represent significant changes relative to the no insulin control (i.e., the negative control) using a two-tailed Student's T test, p<0.05.

[6] = tested on: mesenchymal stem cell; settings: commercially available mesenchymal stem cell kit; as described in WO 2014/082042; cited from earlier work

KLQEELNKV (Ovis aries)
adipogenesis quantified by Oil Red O staining, fold change relative to the negative control ([1]; peptide 5 μg/ml): only observed when a concentration of 50 μg/ml was used
adipogenesis quantified by Oil Red O staining, fold change relative to the negative control ([1]; peptide 50 μg/ml): significantly increased adipogenesis
adipogenesis quantified by Oil Red O staining, fold change relative to the negative control ([2]; peptide 5 μg/ml): significantly increased adipogenesis
adipogenesis quantified by Oil Red O staining, fold change relative to the negative control ([2]; peptide 50 μg/ml): significantly increased adipogenesis

KLKDENSQ (listed as Homo sapiens)
adipogenesis quantified by Oil Red O staining, fold change relative to the negative control ([1]; peptide 5 μg/ml): significant adipogenic effect
adipogenesis quantified by Oil Red O staining, fold change relative to the negative control ([1]; peptide 50 μg/ml): significant adipogenic effect
adipogenic activity [3]: are adipogenic
adipogenesis quantified by Oil Red O staining, fold change relative to the negative control ([2]; peptide 5 μg/ml): significant adipogenic effect
adipogenesis quantified by Oil Red O staining, fold change relative to the negative control ([2]; peptide 50 μg/ml): significant adipogenic effect

KTRSHHV
adipogenic activity in Assay 2 [1]: not in assay 2
adipogenic activity [3]: has adipogenic activity; also recorded: is adipogenic
adipogenesis quantified by Oil Red O staining, fold change relative to the negative control ([2]; peptide 5 μg/ml): significant increase in adipogenesis

STMMSRSHKTRSCHH
binding to hyaluronan (HA) [4]: binds to HA

KLKDENS (listed as Homo sapiens)
adipogenic activity [3]: did not exhibit adipogenic activity; also recorded: lack adipogenic activity

LKSEVSK (listed as Homo sapiens)
adipogenic activity [3]: also found to be adipogenic

KTSSHHV (listed as Arabidopsis thaliana)
adipogenic activity in the adiponectin assay (adiponectin secretion) [5]: lack an ability to promote adipogenesis

STMMSRSHK
adipogenic activity [3]: found to have adipogenic activity

KTRSHHI (listed as Monodelphis domestica)
adipogenic activity in Assay 2 [1]: ablated adipogenic activity
adipogenic activity in Assay 1 ([2]; Assay 1, Oil Red O, concentration not given): ablated adipogenic activity

SQLKSEVSK (listed as Homo sapiens)
adipogenic activity [3]: found to be adipogenic

B1: 114 amino acid protein fragment: RHAMM carboxy-terminal sequence from mouse RHAMM produced as a recombinant protein (protein, listed as Mus musculus)
chain: LDAFEAEKQALLNEHGATQEQLNKIRDSYAQLLGHQNLKQKIKHVVKLKDENSQLKSEVSKLRSQLVKRKQNELRLQGELDKALGIRHFDPSKAFCHASKENFTPLKEGNPNCC
adipogenesis [6]: promoted adipogenesis
